For 25 molecules, IC50 results are on record in ChEMBL document CHEMBL5579838, “Design, synthesis and antitumor activity of a novel FGFR2-selective degrader to overcome resistance of the FGFR2V564F gatekeeper mutation based on a pan-FGFR inhibitor” (Eur J Med Chem, 2024).

The target of the first assay is Fibroblast growth factor receptor 2 (Homo sapiens, UniProt P21802).
Fibroblast growth factor receptor 2, sequence (P21802 whole entry): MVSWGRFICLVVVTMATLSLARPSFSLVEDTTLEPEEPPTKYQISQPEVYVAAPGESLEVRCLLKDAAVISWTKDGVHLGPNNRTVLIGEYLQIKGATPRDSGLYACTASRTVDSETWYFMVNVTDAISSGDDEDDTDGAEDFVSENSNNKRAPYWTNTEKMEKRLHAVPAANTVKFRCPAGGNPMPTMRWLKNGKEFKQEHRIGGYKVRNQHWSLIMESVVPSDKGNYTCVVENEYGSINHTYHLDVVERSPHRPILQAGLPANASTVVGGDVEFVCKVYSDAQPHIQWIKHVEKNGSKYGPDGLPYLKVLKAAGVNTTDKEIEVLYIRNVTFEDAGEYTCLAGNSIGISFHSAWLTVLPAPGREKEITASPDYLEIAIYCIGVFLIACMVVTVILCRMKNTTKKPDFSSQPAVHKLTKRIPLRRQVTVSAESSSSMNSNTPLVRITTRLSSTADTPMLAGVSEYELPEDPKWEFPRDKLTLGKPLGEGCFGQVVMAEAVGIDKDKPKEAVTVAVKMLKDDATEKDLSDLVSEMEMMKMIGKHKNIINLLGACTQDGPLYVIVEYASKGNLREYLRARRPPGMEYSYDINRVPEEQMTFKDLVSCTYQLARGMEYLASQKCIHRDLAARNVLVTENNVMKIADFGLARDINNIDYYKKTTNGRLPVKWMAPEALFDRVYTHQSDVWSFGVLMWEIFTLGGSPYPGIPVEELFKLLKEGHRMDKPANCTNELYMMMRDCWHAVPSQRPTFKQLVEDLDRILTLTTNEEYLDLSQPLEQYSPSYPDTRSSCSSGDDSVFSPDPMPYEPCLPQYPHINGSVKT
Test: not given
Details: not given
For `C[C@@H](Oc1ccc2[nH]nc(/C=C/c3cnn(CCN)c3)c2c1)c1c(Cl)cncc1Cl`, half-maximal inhibition (IC50) required 2.09 nM.

Another assay has as its system KATO III stomach cancer cell line. The experiment in a line: cells. Particulars: Homo sapiens, 72 h.
Description: Antiproliferative activity against FGFR2 amplified human KATO III cells measured after 3 days by MTT assay
As for `Cc1ncsc1-c1ccc(CNC(=O)[C@@H]2C[C@@H](O)CN2C(=O)[C@@H](NC(=O)CCCCC(=O)NCCn2cc(/C=C/c3n[nH]c4ccc(O[C@H](C)c5c(Cl)cncc5Cl)cc34)cn2)C(C)(C)C)cc1`, the IC50 (as a rule, the concentration that inhibits the measured activity by half) was over 50 nM.

Regarding `C[C@@H](Oc1ccc2[nH]nc(/C=C/c3cnn(CCNC(=O)/C=C/C(=O)c4ccc(F)cc4)c3)c2c1)c1c(Cl)cncc1Cl`, the IC50 was 12.1 nM.

Turning to `COc1ccc(C(=O)/C=C/C(=O)NCCn2cc(/C=C/c3n[nH]c4ccc(O[C@H](C)c5c(Cl)cncc5Cl)cc34)cn2)cc1`, the IC50 is 10.1 nM.

For the molecule `C[C@@H](Oc1ccc2[nH]nc(/C=C/c3cnn(CCNC(=O)CCCNc4cccc5c4C(=O)N(C4CCC(=O)NC4=O)C5=O)c3)c2c1)c1c(Cl)cncc1Cl` (stereo not given in full), the IC50 came out at 8.08 nM. The IC50 values of the last two molecules are within 1.5-fold of each other.

`Cc1ncsc1-c1ccc(CNC(=O)[C@@H]2C[C@@H](O)CN2C(=O)[C@@H](NC(=O)CCC(=O)NCCn2cc(/C=C/c3n[nH]c4ccc(O[C@H](C)c5c(Cl)cncc5Cl)cc34)cn2)C(C)(C)C)cc1` had a 50% inhibitory concentration (IC50) of over 50 nM.

The molecule `C[C@@H](Oc1ccc2[nH]nc(/C=C/c3cnn(CCNC(=O)/C=C/C(=O)c4ccc(Br)cc4)c3)c2c1)c1c(Cl)cncc1Cl` yielded an IC50 of 46.6 nM. This lies in the double-digit nanomolar range.

In the case of `C[C@@H](Oc1ccc2[nH]nc(/C=C/c3cnn(CCNc4ccc5c(c4)C(=O)N(C4CCC(=O)NC4=O)C5=O)c3)c2c1)c1c(Cl)cncc1Cl` (stereo not given in full), the IC50 was 7.29 nM.

`C[C@@H](Oc1ccc2[nH]nc(/C=C/c3cnn(CCNC(=O)/C=C/C(=O)c4ccccc4)c3)c2c1)c1c(Cl)cncc1Cl` returned a half-maximal inhibitory concentration (IC50) of 15.4 nM.

With `Cc1ncsc1-c1ccc(CNC(=O)[C@@H]2C[C@@H](O)CN2C(=O)[C@@H](NC(=O)CCCCCC(=O)NCCn2cc(/C=C/c3n[nH]c4ccc(O[C@H](C)c5c(Cl)cncc5Cl)cc34)cn2)C(C)(C)C)cc1`, the IC50 is over 50 nM.

`C[C@@H](Oc1ccc2[nH]nc(/C=C/c3cnn(CCNC(=O)/C=C/c4ccc(C(F)(F)F)cc4)c3)c2c1)c1c(Cl)cncc1Cl` returned an IC50 of 41.8 nM.

`C[C@@H](Oc1ccc2[nH]nc(/C=C/c3cnn(CCNC(=O)CNc4cccc5c4C(=O)N(C4CCC(=O)NC4=O)C5=O)c3)c2c1)c1c(Cl)cncc1Cl` (stereo not given in full) displayed an IC50 of 22.4 nM.

`Cc1ncsc1-c1ccc(CNC(=O)[C@@H]2C[C@@H](O)CN2C(=O)[C@@H](NC(=O)CCCC(=O)NCCn2cc(/C=C/c3n[nH]c4ccc(O[C@H](C)c5c(Cl)cncc5Cl)cc34)cn2)C(C)(C)C)cc1` had a concentration for half-maximal inhibition (IC50) of over 50 nM.

`C[C@@H](Oc1ccc2[nH]nc(/C=C/c3cnn(CCNc4cccc5c4C(=O)N(C4CCC(=O)NC4=O)C5=O)c3)c2c1)c1c(Cl)cncc1Cl` (stereo not given in full): the IC50 stood at 6.83 nM.

The molecule `C[C@@H](Oc1ccc2[nH]nc(/C=C/c3cnn(CCNC(=O)CCNc4ccc5c(c4)C(=O)N(C4CCC(=O)NC4=O)C5=O)c3)c2c1)c1c(Cl)cncc1Cl` (stereo not given in full) had an IC50 of 14.8 nM.

Molecule `C[C@@H](Oc1ccc2[nH]nc(/C=C/c3cnn(CCNC(=O)CCCCNc4cccc5c4C(=O)N(C4CCC(=O)NC4=O)C5=O)c3)c2c1)c1c(Cl)cncc1Cl` (stereo not given in full) yielded an IC50 of 17.5 nM.

Consider `C[C@@H](Oc1ccc2[nH]nc(/C=C/c3cnn(CCNC(=O)/C=C/C(=O)c4ccc(Cl)cc4)c3)c2c1)c1c(Cl)cncc1Cl`, for which the IC50 is over 50 nM.

The molecule `C[C@@H](Oc1ccc2[nH]nc(/C=C/c3cnn(CCNC(=O)CCCCNc4ccc5c(c4)C(=O)N(C4CCC(=O)NC4=O)C5=O)c3)c2c1)c1c(Cl)cncc1Cl` (stereo not given in full) yielded an IC50 of 20 nM.

Molecule `Cc1ncsc1-c1ccc(CNC(=O)[C@@H]2C[C@@H](O)CN2C(=O)[C@@H](NC(=O)CCC(=O)NCn2cc(/C=C/c3n[nH]c4ccc(O[C@H](C)c5c(Cl)cncc5Cl)cc34)cn2)C(C)(C)C)cc1` came in with a concentration for half-maximal inhibition (IC50) of over 50 nM.

Turning to `C[C@@H](Oc1ccc2[nH]nc(/C=C/c3cnn(CCNC(=O)CCCCCNc4cccc5c4C(=O)N(C4CCC(=O)NC4=O)C5=O)c3)c2c1)c1c(Cl)cncc1Cl` (stereo not given in full), it took 4.93 nM to reach half-maximal inhibition (IC50).

The molecule `C[C@@H](Oc1ccc2[nH]nc(/C=C/c3cnn(CCNC(=O)CCCNc4ccc5c(c4)C(=O)N(C4CCC(=O)NC4=O)C5=O)c3)c2c1)c1c(Cl)cncc1Cl` (stereo not given in full) displayed an IC50 of 10.4 nM.

`C[C@@H](Oc1ccc2[nH]nc(/C=C/c3cnn(CCNC(=O)/C=C/c4cc(C(F)(F)F)cc(C(F)(F)F)c4)c3)c2c1)c1c(Cl)cncc1Cl` came in with a 50% inhibitory concentration (IC50) of over 50 nM.

In turn, `C[C@@H](Oc1ccc2[nH]nc(/C=C/c3cnn(CCNC(=O)CCNc4cccc5c4C(=O)N(C4CCC(=O)NC4=O)C5=O)c3)c2c1)c1c(Cl)cncc1Cl` (stereo not given in full) yielded an IC50 of 4.16 nM.

`C[C@@H](Oc1ccc2[nH]nc(/C=C/c3cnn(CCNC(=O)CNc4ccc5c(c4)C(=O)N(C4CCC(=O)NC4=O)C5=O)c3)c2c1)c1c(Cl)cncc1Cl` (stereo not given in full) returned a 50% inhibitory concentration (IC50) of 47 nM.

For `C[C@@H](Oc1ccc2[nH]nc(/C=C/c3cnn(CCNC(=O)/C=C/c4cccc(C(F)(F)F)c4)c3)c2c1)c1c(Cl)cncc1Cl`, the IC50 is 39.2 nM. The IC50 values of the last two molecules are within 1.5-fold of each other.
